Experimental data published in PubChem BioAssay AID256 (DTP/NCI, 2004).
Where “and” joins values, the source holds several entries; their conditions need not be identical. Equal entries are not always repeated. Inconclusive results and toxic doses are left out. Rule for the calls: active = survival T/C of 150% or more; inactive = T/C below 125% in these data.

System: CD2F1 mice, L1210 leukemia ip, survival T/C
Assay: NCI In Vivo Anticancer Drug Screen. Data for tumor model L1210 Leukemia (intraperitoneal) in CD2F1 (CDF1) mice
Details: higher = longer survival
How it was run: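 Mice carrying a transplanted tumor received test compound or vehicle alone. The value is the measurement in the treated group divided by that in the vehicle-treated control group.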

[1] = endpoint: mean survival time, dose: 100.0 mg/kg/injection, schedule: Q04DX002 (ip), vehicle: saline with Tween-80
[2] = endpoint: mean survival time, dose: 100.0 mg/kg/injection, schedule: Q01DX009 (ip), vehicle: saline with Tween-80
[3] = endpoint: mean survival time, dose: 100.0 mg/kg/injection, schedule: Q04DX003 (ip), vehicle: saline with Tween-80
[4] = endpoint: mean survival time, dose: 200.0 mg/kg/injection, schedule: Q04DX003 (ip), vehicle: saline with Tween-80
[5] = endpoint: mean survival time, dose: 400.0 mg/kg/injection, schedule: Q04DX003 (ip), vehicle: saline with Tween-80
[6] = endpoint: mean survival time, dose: 100.0 mg/kg/injection, schedule: Q01DX001 (ip), vehicle: saline with Tween-80
[7] = endpoint: mean survival time, dose: 200.0 mg/kg/injection, schedule: Q01DX001 (ip), vehicle: saline with Tween-80
[8] = endpoint: mean survival time, dose: 400.0 mg/kg/injection, schedule: Q01DX001 (ip), vehicle: saline with Tween-80
[9] = endpoint: mean survival time, dose: 200.0 mg/kg/injection, schedule: Q01DX009 (ip), vehicle: saline with Tween-80
[10] = endpoint: mean survival time, dose: 50.0 mg/kg/injection, schedule: Q01DX009 (ip), vehicle: saline with Tween-80
[11] = endpoint: mean survival time, dose: 100.0 mg/kg/injection, schedule: Q04DX003 (ip), vehicle: saline
[12] = endpoint: mean survival time, dose: 200.0 mg/kg/injection, schedule: Q04DX003 (ip), vehicle: saline
[13] = endpoint: mean survival time, dose: 400.0 mg/kg/injection, schedule: Q04DX003 (ip), vehicle: saline
[14] = endpoint: mean survival time, dose: 25.0 mg/kg/injection, schedule: Q01DX009 (ip), vehicle: saline with Tween-80

Measured: T/C

COc1ccc(C(=O)/C=C/c2ccc3cc(OC)c(OC)cc3c2)cc1OC
inactive: endpoint: mean survival time, dose: 25.0 mg/kg/injection, schedule: Q01DX009 (ip), vehicle: water 98 % of control | endpoint: mean survival time, dose: 50.0 mg/kg/injection, schedule: Q01DX009 (ip), vehicle: water 102 % of control

Nc1nc2c(c(=O)[nH]1)N1C(=O)N(c3ccc(C(=O)NC(CCC(=O)O)C(=O)O)cc3)CC1CN2 (stereo unspecified)
inactive: endpoint: mean survival time, dose: 100.0 mg/kg/injection, schedule: Q01DX001 (ip), vehicle: sodium bicarbonate 107 % of control | endpoint: mean survival time, dose: 200.0 mg/kg/injection, schedule: Q01DX001 (ip), vehicle: sodium bicarbonate 113 % of control | endpoint: mean survival time, dose: 400.0 mg/kg/injection, schedule: Q01DX001 (ip), vehicle: sodium bicarbonate 109 % of control

NC(=O)c1ccc([N+](=O)[O-])cc1Cl
inactive: [1] 102 % of control | endpoint: mean survival time, dose: 200.0 mg/kg/injection, schedule: Q04DX002 (ip), vehicle: saline with Tween-80 94 % of control | endpoint: mean survival time, dose: 400.0 mg/kg/injection, schedule: Q04DX002 (ip), vehicle: saline with Tween-80 94 % of control

CC(=O)OC1CC2CC(C1C)C2(C)C (stereo unspecified)
inactive: [2] 91 % of control | [3] 90 % of control | [4] 88 % of control | [5] 88 % of control

Cc1c2ccccc2c(CN(C)CC(=O)NCC(=O)NCC(=O)O)c2ccccc12
inactive: [6] 103 % of control | [7] 92 % of control | [8] 92 % of control

CC(C)OC(=O)Nc1ccc(F)c(F)c1
inactive: [2] 95 % of control | [9] 98 % of control | endpoint: mean survival time, dose: 400.0 mg/kg/injection, schedule: Q01DX009 (ip), vehicle: saline with Tween-80 114 % of control

C=CCN(CC=C)P(=O)(N1CC1C)N1CC1C (stereo unspecified)
inactive: endpoint: mean survival time, dose: 1.0 mg/kg/injection, schedule: Q01DX009 (ip), vehicle: saline 122 % of control | endpoint: mean survival time, dose: 2.5 mg/kg/injection, schedule: Q01DX001 (ip), vehicle: saline 115 % of control

Cn1ccoc1=NC1CCCCC1
inactive: [10] 94 % of control | [2] 94 % of control | [9] 91 % of control

COC1C(O)CC(=O)OC(C)C/C=C/C=C/C(OC2CCC(N(C)C)C(C)O2)C(C)CC(CC=O)C1OC1OC(C)C(OC2CC(C)(O)C(O)C(C)O2)C(N(C)C)C1O (stereo unspecified)
inactive: endpoint: mean survival time, dose: 6.3 mg/kg/injection, schedule: Q03HX024 (ip), vehicle: saline 100 % of control | endpoint: mean survival time, dose: 12.5 mg/kg/injection, schedule: Q03HX008 (ip), vehicle: saline 100 % of control | endpoint: mean survival time, dose: 12.5 mg/kg/injection, schedule: Q03HX024 (ip), vehicle: saline 100 % of control | endpoint: mean survival time, dose: 25.0 mg/kg/injection, schedule: Q03HX008 (ip), vehicle: saline 97 % of control | endpoint: mean survival time, dose: 25.0 mg/kg/injection, schedule: Q03HX024 (ip), vehicle: saline 101 % of control | endpoint: mean survival time, dose: 50.0 mg/kg/injection, schedule: Q01DX009 (ip), vehicle: saline 98 % of control | endpoint: mean survival time, dose: 50.0 mg/kg/injection, schedule: Q03HX008 (ip), vehicle: saline 100 % of control | endpoint: mean survival time, dose: 50.0 mg/kg/injection, schedule: Q03HX024 (ip), vehicle: saline 103 % of control | endpoint: mean survival time, dose: 100.0 mg/kg/injection, schedule: Q01DX001 (ip), vehicle: saline 102 % of control | endpoint: mean survival time, dose: 100.0 mg/kg/injection, schedule: Q01DX009 (ip), vehicle: saline 96 % of control | endpoint: mean survival time, dose: 100.0 mg/kg/injection, schedule: Q03HX008 (ip), vehicle: saline 97 % of control | [11] 98 % of control | endpoint: mean survival time, dose: 200.0 mg/kg/injection, schedule: Q01DX001 (ip), vehicle: saline 98 % of control | endpoint: mean survival time, dose: 200.0 mg/kg/injection, schedule: Q01DX009 (ip), vehicle: saline 102 % of control | [12] 100 % of control | endpoint: mean survival time, dose: 400.0 mg/kg/injection, schedule: Q01DX001 (ip), vehicle: saline 106 % of control | endpoint: mean survival time, dose: 400.0 mg/kg/injection, schedule: Q01DX009 (ip), vehicle: saline 98 % of control | [13] 100 % of control

OCC(F)(F)C(F)(F)C(F)(F)CO
inactive: [11] 101 % of control | [12] 107 % of control | [13] 104 % of control

CN1CCC(c2ccccc2)(c2ccccc2)OC1
inactive: [14] 106 % of control | [10] 98 % of control | [2] 110 % of control

CC(C)CCNc1ncnc2[nH]ncc12
inactive: endpoint: mean survival time, dose: 12.5 mg/kg/injection, schedule: Q04DX003 (ip), vehicle: Klucel (hydroxypropylcellulose) (HPC) 106 % of control | endpoint: mean survival time, dose: 25.0 mg/kg/injection, schedule: Q04DX003 (ip), vehicle: Klucel (hydroxypropylcellulose) (HPC) 106 % of control | endpoint: mean survival time, dose: 50.0 mg/kg/injection, schedule: Q04DX003 (ip), vehicle: Klucel (hydroxypropylcellulose) (HPC) 100 % of control

CCCCN(Cl)CCCC
inactive: endpoint: mean survival time, dose: 25.0 mg/kg/injection, schedule: Q04DX002 (ip), vehicle: saline with Tween-80 92 % of control | endpoint: mean survival time, dose: 50.0 mg/kg/injection, schedule: Q04DX002 (ip), vehicle: saline with Tween-80 92 % of control | [1] 103 % of control

Clc1ccc(COC(Cn2ccnc2)c2ccc(Cl)cc2Cl)c(Cl)c1 (stereo unspecified)
inactive: [3] 91 % of control | [4] 93 % of control

COc1ccc(Cl)cc1NC(=O)N/N=C(\C)CC(C)C
inactive: [6] 105 % of control | [7] 95 % of control | [8] 101 % of control

CNC(=O)/C(=C(\[O-])NC)[S+](C)(C)=O
inactive: [3] 101 % of control | [4] 100 % of control | [5] 100 % of control

CN(C)c1nc(N(C)C)nc(N(C)C)n1
inactive: endpoint: mean survival time, dose: 12.5 mg/kg/injection, schedule: Q01DX009 (ip), vehicle: saline with Tween-80 93 % of control and 103 % of control | endpoint: mean survival time, dose: 20.0 mg/kg/injection, schedule: Q01DX009 (ip), vehicle: Klucel (hydroxypropylcellulose) (HPC) 106 % of control | [14] 97 % of control and 102 % of control | endpoint: mean survival time, dose: 40.0 mg/kg/injection, schedule: Q01DX009 (ip), vehicle: Klucel (hydroxypropylcellulose) (HPC) 102 % of control | endpoint: mean survival time, dose: 50.0 mg/kg/injection, schedule: Q01DX001 (ip), vehicle: saline with Tween-80 96 % of control | [10] 97 % of control and 100 % of control | endpoint: mean survival time, dose: 80.0 mg/kg/injection, schedule: Q01DX009 (ip), vehicle: Klucel (hydroxypropylcellulose) (HPC) 106 % of control | [6] 104 % of control | [2] 96 % of control and 97 % of control | endpoint: mean survival time, dose: 160.0 mg/kg/injection, schedule: Q01DX009 (ip), vehicle: Klucel (hydroxypropylcellulose) (HPC) 100 % of control | [7] 97 % of control | [9] 100 % of control and 103 % of control | [8] 104 % of control | endpoint: median survival time, dose: 8.0 mg/kg/injection, schedule: Q03HX024 (ip), vehicle: Klucel (hydroxypropylcellulose) (HPC) 97 % of control | endpoint: median survival time, dose: 16.0 mg/kg/injection, schedule: Q03HX008 (ip), vehicle: Klucel (hydroxypropylcellulose) (HPC) 96 % of control | endpoint: median survival time, dose: 16.0 mg/kg/injection, schedule: Q03HX016 (ip), vehicle: Klucel (hydroxypropylcellulose) (HPC) 96 % of control | endpoint: median survival time, dose: 16.0 mg/kg/injection, schedule: Q03HX024 (ip), vehicle: Klucel (hydroxypropylcellulose) (HPC) 104 % of control | endpoint: median survival time, dose: 32.0 mg/kg/injection, schedule: Q01DX009 (ip), vehicle: Klucel (hydroxypropylcellulose) (HPC) 108 % of control | endpoint: median survival time, dose: 32.0 mg/kg/injection, schedule: Q03HX008 (ip), vehicle: Klucel (hydroxypropylcellulose) (HPC) 100 % of control | endpoint: median survival time, dose: 32.0 mg/kg/injection, schedule: Q03HX016 (ip), vehicle: Klucel (hydroxypropylcellulose) (HPC) 100 % of control | endpoint: median survival time, dose: 32.0 mg/kg/injection, schedule: Q03HX024 (ip), vehicle: Klucel (hydroxypropylcellulose) (HPC) 111 % of control | endpoint: median survival time, dose: 64.0 mg/kg/injection, schedule: Q01DX009 (ip), vehicle: Klucel (hydroxypropylcellulose) (HPC) 107 % of control | endpoint: median survival time, dose: 64.0 mg/kg/injection, schedule: Q04DX003 (ip), vehicle: Klucel (hydroxypropylcellulose) (HPC) 98 % of control | endpoint: median survival time, dose: 128.0 mg/kg/injection, schedule: Q01DX001 (ip), vehicle: Klucel (hydroxypropylcellulose) (HPC) 97 % of control | endpoint: median survival time, dose: 128.0 mg/kg/injection, schedule: Q01DX009 (ip), vehicle: Klucel (hydroxypropylcellulose) (HPC) 102 % of control | endpoint: median survival time, dose: 128.0 mg/kg/injection, schedule: Q04DX003 (ip), vehicle: Klucel (hydroxypropylcellulose) (HPC) 109 % of control | endpoint: median survival time, dose: 128.0 mg/kg/injection, schedule: Q08DX002 (ip), vehicle: Klucel (hydroxypropylcellulose) (HPC) 98 % of control | endpoint: median survival time, dose: 256.0 mg/kg/injection, schedule: Q01DX001 (ip), vehicle: Klucel (hydroxypropylcellulose) (HPC) 98 % of control | endpoint: median survival time, dose: 256.0 mg/kg/injection, schedule: Q04DX003 (ip), vehicle: Klucel (hydroxypropylcellulose) (HPC) 114 % of control | endpoint: median survival time, dose: 256.0 mg/kg/injection, schedule: Q08DX002 (ip), vehicle: Klucel (hydroxypropylcellulose) (HPC) 98 % of control
